1 compound from patent publication US12178838B2, “Synthetic neuromodulatory peptides” (Lactocore, Inc., priority 2019, dated 2024) can be followed below.

Like-named read-outs stand apart in the source and are kept apart here.

Assay [1] relates to zebrafish (Danio rerio). Nature of the assay: Open Field test in zebrafish. The format is in vivo. As to conditions: ip. The method, then: The tested substances were injected into the zebrafish intraperitoneally (ip) using an insulin syringe (0.5 ml, 30 g) 10 minutes before the test. The saline solution (0.9% NaCl) was used as a solvent. Anesthesia and immobilization of the animals were achieved by placing them in water at a temperature of 10° C. Control group fish received intraperitoneal injections of an equivalent volume of solvent, also after going through a pre-cooling procedure.
A base, back, and side walls of the aquarium were made of matte black plastic; the front panel (shorter wall) was made of transparent Plexiglas. The setup for the Light/Dark preference test consisted of three main parts: a launch compartment, a light compartment made of white plastic, and a dark compartment made of black plastic. The bright lighting in these tests was provided by a lamp on a stand (LED lamp PL, 11 W, light flux≈600 Lm, about 500 Lx directly above the water surface), which was attached to the upper part of the aquarium.
The open field test was performed as described in Maximino et al., 2013. A video recording (background shooting) was started 20-30 seconds before the zebrafish were placed in the test aquarium. The experimental zebrafish was placed in an open field (“OF”) aquarium using a net. The recording was being conducted for five minutes. The test was carried out using EthoVision XT software package (Noldus). The software registered the distance covered by the animal, its speed, the number of visits to the three conventional zones of the aquarium: “bottom,” “center,” and […] (lower, middle, and upper thirds of the aquarium, respectively), the time spent in these zones, and the latency of a visit to the middle and to the surface of the aquarium.

Assay [2] has as its system BALB/C mice. Nature of the assay: Elevated Plus Maze test in mice. The format is in vivo. As to conditions: ip, Diazepam 0.75 mg/kg. The procedure:
After an adaptation period, the test substance was intraperitoneally injected into mice. Behavioral parameters were measured in 30 minutes after injection. The tests were administered as follows: day 1—the Open field test, day 3—the Elevated plus maze test, day 5—the Marble burying test, days 12-13—the Porsolt swim (two-day modification) test.
In the elevated plus maze test, a test arena includes two open and two closed arms crossed in the middle. The arm length is 30 cm, the height of the closed arms side walls is 15 cm. The entire installation is raised 70 cm above the floor. The open arms have bright uniform illumination of about 400 lux, and the closed arms have illumination of about 30-40 lux. Mice were placed at the junction of the four arms of the maze (center), facing an open arm. The following behavioral parameters were automatically registered by the EthoVision, Noldus program within 5 minutes of the experiment: a total distance (cm), a time of motion (if the speed is more than 5 cm/s), an immobility (if the speed is less than 0.2 cm/sec), a mean and maximum velocity, and the number of episodes of motor activity and “freezing”. The same set of parameters, as well as a latent period and the duration of stay, were measured for the central sector, open and closed arms separately. (Manufactured by OpenScience, Russia).
All substances were injected intraperitoneally in a volume of 10 μl of solution per 1 gram of animal weight 30 minutes prior to behavioral testing.
The second group of parameters includes a time on open arms (in seconds) (FIG. 35), a number of open arms entries (FIG. 36), a number of risk behavior (number of rearings and dangle events, as shown in FIG. 37]), and an anxiety index (FIG. 38). The anxiety index (AI) was calculated using the following formula: AI=100*(1−(time on open arms/total test time+open arms entries/total number of entries)/2)

For assay [3], the system named is Sprague Dawley rats. Nature of the assay: Elevated Plus Maze in rats, intranasal FQSE. The assay is classed as in vivo. As to conditions: FQSE 0.5 mg/kg i.n.; diazepam 2 mg/kg IP. The procedure:
The five doses of FQSE (SEQ ID NO:10) (0.01, 0.1, 0.5, 1 and 3 mg/kg, CS, Menlo Park, CA) were prepared fresh for each test day in sterile saline and administered intranasally (i.n.) 30 minutes prior to testing. Fifteen rats per group per peptide dose were tested with the exception that there were twenty rats in the vehicle (0) group. Each dose was administered in a randomized order across rats. Prior to dosing, the rats were lightly anesthetized (till loss of righting reflex) with isoflurane (2.5%, 0.5 L/min oxygen), placed in the recumbent position, then a thin plastic pipette (Fischer Scientific) inserted into the nares and peptide administered at a volume of 15-20 uL per nares. Individuals performing the behavioral tests were blind to drug treatment.
Rats were first allowed to acclimate to the testing room for 30 minutes while in their home cage. During testing, a rat was placed on the maze which consists of two open arms (45-cm long×10-cm wide), two closed arms (45-cm long×10-cm wide×30-cm high), and a middle compartment (4-cm long×4-cm wide) forming the shape of a plus located 50-cm above the floor, for 5-min. The test session was digitally recorded for later analyses (Ethovision, XT12). All testing was conducted under red lighting. An experimenter observed the rat during testing through a specialized observation window built into the door of the behavioral testing room. […]

Assay [4] has as its target FQSE (SEQ ID NO:10)-specific binding sites in the rat cortex. Nature of the assay: Radioligand analysis with [3H] FQSE on rat cortex membranes. The procedure: After decapitation, the tissues were immediately frozen in liquid nitrogen and stored in a low-temperature refrigerator at −80° C. On the day of the experiment, brain tissue (cortex, about 300 mg) was homogenized in a Teflon-glass Potter homogenizer 1:25 W:V in the buffer (50 mM Tris-HCl, pH 7.4). The homogenate was centrifuged at 40,000 g for 20 min. The obtained precipitate was homogenized in a buffer (50 mM Tris-HCl; pH=7.4) and centrifuged again at 40,000 g for 20 min. A similar procedure was performed again. The precipitate was resuspended in 15 ml of the same buffer and used for the radioligand analysis.
The incubation mixture (final volume 0.5 ml) contained 50 μl […]
At the end of the incubation, the samples were filtered through Ge/C glass fiber filters (Whatman) previously moistened with 0.3% polyethyleneimine for 2 hours at room temperature. Each tube was washed twice with cold buffer, then the filters were washed twice with the same volume of buffer.
The filters were air-dried and transferred to scintillation vials. Filters were poured with 5 ml of toluene-based scintillation liquid (4 g PPO, 0.2 g POPOP per liter of toluene).
To construct the curves of the radioactive ligand's displacement each concentration of the test substance was taken in 3 replications. […]

In the case of `CN1C(=O)CN=C(c2ccccc2)c2cc(Cl)ccc21` [Diazepam], the “distance covered during the open field test” value in assay [1] (diazepam 10 mg/kg) is listed as “tended to cover a smaller distance”. In addition, the “average distance covered / track length (locomotor activity)” value in assay [1] (diazepam 1.25, 5, 10, fluvoxamine 5, 10, ACZ-10 0.6, BCM-7 5, FQSE 1 and 10, DKTE 1, WDQV 10 mg/kg) was “did not demonstrate any significant effects”. For the same compound, the “behavior in the open field test” value in assay [1] (diazepam 1.25 and 5 mg/kg) is reported as “No effects”. Also, in assay [2] (FQSE 20 mg/kg), the “Time on open arms” value was found to be 67.4 ± 18.43 s. Also, the Open arms entries in assay [2] (FQSE 1 mg/kg) came out at 6.5±0.99. In addition, the “The number of risk behavior” value in assay [2] (FQSE 1 mg/kg) is on record as 15±2.8. The total distance in assay [2] (FQSE 1 mg/kg) was determined as 1219±91.4 cm. For the same compound, the “percent time on the open arm” value in assay [3] turned out to be 10.8±1.11%. Moreover, the IC50 (usually the concentration at which inhibition is half-maximal) in assay [4] (read-out: IC50 after different incubation times: 50 min) was 52 ± 0.3 µM; in assay [4] (read-out: IC50 after different incubation times: 1 h), 89 ± 0.3 µM; in assay [4] (read-out: IC50 after different incubation times: 1 h 30 min) it was 95 ± 0.2 µM; in assay [4] (read-out: IC50 for the [3H]-FQSE binding sites in rat cortex membranes) it was approximately 100 µM.
